Assay results published in patent publication US20190241822A1, “COMPOSITION FOR REMOVING IRON SULFIDE” (KURARAY CO., LTD., priority 2016, published 2019).
Where two headings read alike, the source gives them in different places.

Columns and labels:
[1] = Removal test of iron sulfide; conditions: for time elapsed until iron sulfide was dissolved and the reaction solution became colorless transparent: 1.5 mmol aldehyde, 0.5 mmol iron sulfide in 500 mL water, 50° C., 500 rpm
Rat = conditions: cited from earlier work
[2] = upper respiratory tract; cited from earlier work
[3] = assay type: physicochemical; conditions: 50° C., nitrogen atmosphere; for content ratio, 2 hours elapsed / content ratio, 4 hours elapsed / content ratio, 6 hours elapsed / content ratio, 10 hours elapsed: GC with internal standard; for content ratio, 0 hour: content immediately after temperature rise defined as 100%
Procedure: 50 mL of each of SAL and acrolein was charged in three-necked flask, and the contents were subjected to temperature rise to 50° C. in a nitrogen atmosphere. On the occasion when the content of each of SAL and acrolein immediately after the temperature rise was defined as 100%, a change of the content ratio was observed according to the calibration curve method by means of gas chromatography with an internal standard.
Analysis instrument: GC-14A (available from Shimadzu Corporation) Detector: FID (hydrogen flame ionization detector)
Column used: DB-1701 (length: 50 m, film thickness: 1 pn, inner diameter: 0.32 mm) (available from Agilent Technologies)
Analysis conditions: Injection temperature: 250° C., detection temperature: 250° C.
Temperature rise conditions: 70° C.→(temperature rise at 5° C./min)→250° C.
Internal standard substance: Diglyme (diethylene glycol dimethyl ether)

[4] = assay type: physicochemical; conditions: pH 1.7
Procedure: Each of SAL and acrolein was dissolved in 0.5 mol/L of phosphoric acid buffer solutions having a pH different from each other, thereby preparing 0.1 wt % solutions. 50 mL of each of the solutions was charged in a sample vial in a nitrogen atmosphere and stored at 23±2° C. On the occasion when the content of each of SAL and acrolein at the time of preparation was defined as 100%, a change of the content ratio was observed according to the absolute calibration curve by means of high-performance liquid chromatography analysis.
pH 1.7: 4.9 g of 75% phosphoric acid and 7.8 g of sodium dihydrogen phosphate dihydrate were dissolved in 200 mL of distilled water.
pH 6.2: 7.8 g of sodium dihydrogen phosphate dihydrate and 7.1 g of disodium hydrogen phosphate were dissolved in 200 mL of distilled water.
pH 8.1: 0.3 g of sodium dihydrogen phosphate dihydrate and 13.9 g of disodium hydrogen phosphate were dissolved in 200 mL of distilled water.
Analysis instrument: Prominence System (available from Shimadzu Corporation)
Column used: Cadenza CD-C18 (length: […], inner diameter: 4.6 mm)
Developing solution: H2O/MeOH=45/55 (volume ratio), H3PO4=1 mol/L

| Structure (SMILES) | time elapsed until iron sulfide was dissolved and the reaction solution became colorless transparent [1] [h] | iron sulfide removal ability ([1]; compared with acrolein) | Acute toxicity, Rat LD50 (Rat; rat, in vivo) | GHS Classification (under Permissible Exposure Limit) [2] | content ratio, 2 hours elapsed [3] [%] | content ratio, 4 hours elapsed [3] [%] | content ratio, 6 hours elapsed [3] [%] | content ratio, 10 hours elapsed [3] [%] | content ratio, 0 hour [3] [%] | pH stability as compared with acrolein [4] | Acute toxicity, Rat LD50 (Rat; Rat) | ratio lost after elapsing 10 hours ([3]; acrolein contained hydroquinone as a stabilizer) [%] |
| --- | --- | --- | --- | --- | --- | --- | --- | --- | --- | --- | --- | --- |
| CC(C)=CCCC(C)=CC=O [Citral, 3,7-dimethyl-2,6-octadienal] | 7 |  |  |  |  |  |  |  |  |  |  |  |
| CC(C)=CC=O [SAL, 3-methyl-2-butenal] | 4 | equivalent to acrolein | Rat LD50: 690 mg/kg | GHS Classification; Section 1 (upper | 100.0 | 100.0 | 100.0 | 99.9 | 100.0 | extremely high in the pH stability as compared with acrolein |  |  |
| C=CC=O [Acrolein, acrolein, reference compound] | 4 |  |  |  | 99.5 | 98.3 | 98.1 | 96.6 | 100.0 |  | Rat LD50: 42 mg/kg | 3.4 |
